{"source": "patent US11225470B2", "about": "“Tetrazolinone compounds and its use as pest control agents” (SUMITOMO CHEMICAL COMPANY, LIMITED, priority 2016, dated 2022)", "test_system": "tomato early blight fungi (Alternaria solani; QoI resistant strain, cytochrome b phenylalanine 129 mutated to leucine)", "assay_type": "in vivo", "details": "200 ppm foliar spray, inoculation after 1 day; tomato cv PATIO"}
{"smiles": "CCC(=NN=C(C)c1ccc2ccccc2c1)OCc1c(C)cccc1-n1nnn(C)c1=O", "note": "[cf1]", "values": [{"measurement": "lesion area compared to the lesion area in an untreated tomato", "value": "≥ 70", "unit": "%"}]}
